Laboratory results reported in ChEMBL document CHEMBL5463729, “Data for DCP probe BAY 1753011” (2023).

Columns and labels:
[1] = biological target: Cannabinoid receptor 1 (Homo sapiens) (UniProt P21554); experiment: Inhibition of Cannabinoid CB1 at compound concentration of 10.0 uM in the Eurofins-Panlabs radioligand binding assay (Eurofins_assay_217050); set-up: ligand concentration 2 nM; conditions: Compound concentration 10.0 uM
[2] = biological target: 5-hydroxytryptamine receptor 1D (Homo sapiens) (UniProt P28221); conditions: Compound concentration 10.0 uM
5-hydroxytryptamine receptor 1D (Homo sapiens), sequence (P28221 whole entry): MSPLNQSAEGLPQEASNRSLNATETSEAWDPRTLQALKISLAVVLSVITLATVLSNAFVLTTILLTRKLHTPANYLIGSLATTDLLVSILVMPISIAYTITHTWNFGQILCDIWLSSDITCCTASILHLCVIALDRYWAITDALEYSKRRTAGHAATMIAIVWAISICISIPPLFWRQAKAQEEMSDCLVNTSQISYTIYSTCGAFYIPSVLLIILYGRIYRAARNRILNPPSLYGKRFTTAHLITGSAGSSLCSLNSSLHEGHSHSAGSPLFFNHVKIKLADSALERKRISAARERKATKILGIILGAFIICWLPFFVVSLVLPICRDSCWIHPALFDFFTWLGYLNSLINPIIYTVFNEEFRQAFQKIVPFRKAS

[3] = biological target: T1, Muscarinic acetylcholine receptor M4 (Homo sapiens) (UniProt P08173); conditions: Compound concentration 10.0 uM
T1 sequence (whole entry): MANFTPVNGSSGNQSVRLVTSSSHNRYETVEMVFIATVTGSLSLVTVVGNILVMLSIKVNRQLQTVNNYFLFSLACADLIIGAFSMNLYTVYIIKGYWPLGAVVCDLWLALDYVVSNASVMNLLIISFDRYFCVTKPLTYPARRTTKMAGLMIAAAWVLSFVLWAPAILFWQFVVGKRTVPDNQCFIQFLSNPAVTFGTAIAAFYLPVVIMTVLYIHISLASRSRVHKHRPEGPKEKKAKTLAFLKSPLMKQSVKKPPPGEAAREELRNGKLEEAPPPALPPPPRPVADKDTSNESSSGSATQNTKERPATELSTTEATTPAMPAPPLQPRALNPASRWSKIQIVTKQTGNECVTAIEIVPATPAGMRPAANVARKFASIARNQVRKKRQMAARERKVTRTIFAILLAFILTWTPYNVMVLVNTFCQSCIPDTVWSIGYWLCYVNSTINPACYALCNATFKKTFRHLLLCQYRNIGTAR

[4] = biological target: Growth hormone secretagogue receptor type 1 (Homo sapiens) (UniProt Q92847); conditions: Compound concentration 10.0 uM
[5] = biological target: Gamma-aminobutyric acid type B receptor subunit 1 (Homo sapiens) (UniProt Q9UBS5); conditions: Rattus norvegicus; Compound concentration 10.0 uM
Gamma-aminobutyric acid type B receptor subunit 1 (Homo sapiens), sequence (Q9UBS5 whole entry): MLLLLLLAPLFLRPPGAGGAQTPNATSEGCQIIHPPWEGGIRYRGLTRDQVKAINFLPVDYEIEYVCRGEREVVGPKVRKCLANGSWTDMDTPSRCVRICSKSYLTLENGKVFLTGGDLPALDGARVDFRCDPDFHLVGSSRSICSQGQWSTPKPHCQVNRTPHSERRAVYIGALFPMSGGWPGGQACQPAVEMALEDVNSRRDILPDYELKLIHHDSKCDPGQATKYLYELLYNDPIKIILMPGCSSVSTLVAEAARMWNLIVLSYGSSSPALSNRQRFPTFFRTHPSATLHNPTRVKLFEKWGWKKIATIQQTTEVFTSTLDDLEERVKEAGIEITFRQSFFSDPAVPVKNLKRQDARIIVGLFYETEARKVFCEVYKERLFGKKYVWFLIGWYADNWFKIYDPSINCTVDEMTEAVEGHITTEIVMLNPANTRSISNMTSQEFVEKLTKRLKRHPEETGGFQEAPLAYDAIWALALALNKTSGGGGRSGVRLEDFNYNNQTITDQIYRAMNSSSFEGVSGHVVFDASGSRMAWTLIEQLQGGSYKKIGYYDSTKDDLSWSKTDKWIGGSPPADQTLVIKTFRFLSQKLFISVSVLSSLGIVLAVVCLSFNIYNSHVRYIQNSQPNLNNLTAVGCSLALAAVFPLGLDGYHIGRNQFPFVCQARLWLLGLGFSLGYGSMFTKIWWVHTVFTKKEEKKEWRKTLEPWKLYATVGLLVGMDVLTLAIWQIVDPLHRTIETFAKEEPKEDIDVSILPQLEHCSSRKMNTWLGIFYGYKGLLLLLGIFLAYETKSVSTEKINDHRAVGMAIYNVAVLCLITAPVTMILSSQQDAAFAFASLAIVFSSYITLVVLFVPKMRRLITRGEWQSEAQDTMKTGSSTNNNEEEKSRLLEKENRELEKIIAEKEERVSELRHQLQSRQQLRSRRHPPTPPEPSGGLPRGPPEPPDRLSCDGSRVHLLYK

[6] = biological target: Cannabinoid receptor 2 (Homo sapiens) (UniProt P34972); conditions: Compound concentration 10.0 uM
Cannabinoid receptor 2 (Homo sapiens), sequence (P34972 whole entry): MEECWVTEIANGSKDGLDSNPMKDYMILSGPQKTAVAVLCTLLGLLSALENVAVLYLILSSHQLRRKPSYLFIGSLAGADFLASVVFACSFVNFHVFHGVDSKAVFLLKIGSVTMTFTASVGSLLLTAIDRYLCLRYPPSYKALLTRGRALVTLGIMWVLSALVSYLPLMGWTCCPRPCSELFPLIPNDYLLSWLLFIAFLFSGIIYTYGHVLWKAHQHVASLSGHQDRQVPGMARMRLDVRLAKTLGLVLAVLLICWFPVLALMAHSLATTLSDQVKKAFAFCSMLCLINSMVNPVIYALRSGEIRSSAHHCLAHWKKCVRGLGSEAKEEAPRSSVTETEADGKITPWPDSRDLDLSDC

[7] = biological target: MAP kinase-interacting serine/threonine-protein kinase 1 (Homo sapiens) (UniProt Q9BUB5); experiment: Inhibition of Mnk1(h) at 10.0 µM in the Eurofins Kinase panel; conditions: Compound concentration 10.0 uM
MAP kinase-interacting serine/threonine-protein kinase 1 (Homo sapiens), sequence (Q9BUB5 whole entry, looked up): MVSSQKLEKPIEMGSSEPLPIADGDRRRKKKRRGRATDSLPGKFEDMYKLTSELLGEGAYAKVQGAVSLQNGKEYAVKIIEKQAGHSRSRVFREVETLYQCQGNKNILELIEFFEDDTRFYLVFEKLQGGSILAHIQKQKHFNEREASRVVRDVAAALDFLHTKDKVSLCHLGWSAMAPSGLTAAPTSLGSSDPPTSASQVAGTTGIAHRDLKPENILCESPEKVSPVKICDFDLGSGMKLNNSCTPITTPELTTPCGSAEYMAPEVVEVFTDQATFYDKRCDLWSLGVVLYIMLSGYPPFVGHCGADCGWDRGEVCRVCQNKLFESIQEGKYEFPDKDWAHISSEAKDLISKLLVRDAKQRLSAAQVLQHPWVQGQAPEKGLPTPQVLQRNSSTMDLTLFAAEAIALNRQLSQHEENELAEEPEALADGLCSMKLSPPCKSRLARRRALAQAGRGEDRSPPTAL

[8] = biological target: Progesterone receptor (Homo sapiens) (UniProt P06401); conditions: Compound concentration 10.0 uM
[9] = biological target: Tyrosine-protein kinase Lck (Homo sapiens) (UniProt P06239); experiment: Inhibition of Lck(h) at 10.0 µM in the Eurofins Kinase panel; conditions: Compound concentration 10.0 uM
Tyrosine-protein kinase Lck (Homo sapiens), sequence (P06239 2-509 limits assumed): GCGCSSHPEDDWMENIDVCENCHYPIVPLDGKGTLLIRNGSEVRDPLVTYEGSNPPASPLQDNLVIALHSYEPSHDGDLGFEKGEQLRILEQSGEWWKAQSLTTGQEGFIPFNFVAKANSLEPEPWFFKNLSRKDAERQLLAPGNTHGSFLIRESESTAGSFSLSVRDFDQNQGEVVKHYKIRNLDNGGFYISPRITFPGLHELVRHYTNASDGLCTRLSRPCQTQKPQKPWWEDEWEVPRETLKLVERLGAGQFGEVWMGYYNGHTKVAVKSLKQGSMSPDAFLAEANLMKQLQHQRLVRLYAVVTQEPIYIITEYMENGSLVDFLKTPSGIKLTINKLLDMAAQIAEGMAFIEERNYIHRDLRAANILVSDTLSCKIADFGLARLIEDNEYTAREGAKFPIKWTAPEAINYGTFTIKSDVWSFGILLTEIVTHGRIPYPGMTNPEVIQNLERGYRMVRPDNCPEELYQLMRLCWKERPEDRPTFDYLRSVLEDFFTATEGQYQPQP

[10] = biological target: mTOR/FKBP12A/FKBP12B (Homo sapiens) (UniProt P62942+P68106+P42345); experiment: Inhibition of mTOR FKBP12(h) at 10.0 µM in the Eurofins Kinase panel; format: protein-complex assay; conditions: Compound concentration 10.0 uM
mTOR/FKBP12A/FKBP12B (Homo sapiens), sequence (P62942 2-108 limits assumed, other chains not shown): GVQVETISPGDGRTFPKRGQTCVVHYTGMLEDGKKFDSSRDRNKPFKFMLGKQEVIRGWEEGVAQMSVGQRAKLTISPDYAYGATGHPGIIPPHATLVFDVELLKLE
mTOR/FKBP12A/FKBP12B (Homo sapiens), sequence (P68106 whole entry partner, other chains not shown): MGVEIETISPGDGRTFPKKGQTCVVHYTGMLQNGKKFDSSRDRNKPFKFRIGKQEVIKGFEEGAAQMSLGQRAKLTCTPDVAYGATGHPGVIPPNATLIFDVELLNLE

[11] = species: Oryctolagus cuniculus; experiment: Inhibition of Purinergic P2X at 10 µM in the Eurofins-Panlabs radioligand binding assay (Eurofins_assay_268700); format: protein assay; conditions: Compound concentration 10.0 uM
[12] = biological target: Cathepsin G (Homo sapiens) (UniProt P08311); experiment: Inhibition of Peptidase, CTSG (Cathepsin G) at 10 µM in the Eurofins-Panlabs enzyme assay (Eurofins_assay_112510); set-up: substrate with concentration; conditions: Compound concentration 10.0 uM
[13] = biological target: Protein phosphatase 3 catalytic subunit alpha (Homo sapiens) (UniProt Q08209); experiment: Inhibition of Protein Serine/threonine Phosphatase, PPP3CA (Calcineurin, PP2B) at […] µM in the Eurofins-Panlabs enzyme assay (Eurofins_assay_188020); set-up: substrate with concentration; conditions: Compound concentration 11.0 uM
[14] = biological target: Neutrophil elastase (Homo sapiens) (UniProt P08246); experiment: Inhibition of Peptidase, ELA2 (Neutrophil Elastase 2) at 10 µM in the Eurofins-Panlabs enzyme assay (Eurofins_assay_166010); conditions: Compound concentration 10.0 uM
[15] = biological target: Platelet-activating factor receptor (Homo sapiens) (UniProt P25105); experiment: Inhibition of Platelet Activating Factor (PAF) at 10 µM in the Eurofins-Panlabs radioligand binding assay (Eurofins_assay_265010); conditions: Compound concentration 10.0 uM
[16] = biological target: Calcitonin receptor (Homo sapiens) (UniProt P30988); experiment: Inhibition of Calcitonin at 10 µM in the Eurofins-Panlabs radioligand binding assay (Eurofins_assay_213610); conditions: Compound concentration 10.0 uM
Calcitonin receptor (Homo sapiens), sequence (P30988 whole entry): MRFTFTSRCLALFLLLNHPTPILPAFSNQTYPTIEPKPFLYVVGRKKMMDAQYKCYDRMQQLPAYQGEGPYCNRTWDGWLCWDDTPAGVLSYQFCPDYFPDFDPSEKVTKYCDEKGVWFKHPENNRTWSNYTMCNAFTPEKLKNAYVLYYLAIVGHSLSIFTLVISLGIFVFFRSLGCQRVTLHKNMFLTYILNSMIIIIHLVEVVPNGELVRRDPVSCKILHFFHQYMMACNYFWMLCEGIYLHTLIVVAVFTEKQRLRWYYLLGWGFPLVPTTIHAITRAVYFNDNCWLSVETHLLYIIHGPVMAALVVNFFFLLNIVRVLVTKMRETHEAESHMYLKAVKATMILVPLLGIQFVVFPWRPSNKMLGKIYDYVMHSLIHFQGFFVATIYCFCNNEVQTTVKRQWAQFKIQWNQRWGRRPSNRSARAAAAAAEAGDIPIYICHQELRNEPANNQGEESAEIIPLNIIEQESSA

[17] = biological target: SRSF protein kinase 2 (Homo sapiens) (UniProt P78362); experiment: Inhibition of SRPK2(h) at 10.0 µM in the Eurofins Kinase panel; conditions: Compound concentration 10.0 uM
[18] = biological target: Mitogen-activated protein kinase 14 (Homo sapiens) (UniProt Q16539); experiment: Inhibition of Protein Serine/Threonine Kinase, MAPK14 (p38α) at 10 µM in the Eurofins-Panlabs enzyme assay (Eurofins_assay_176610); set-up: substrate with concentration; conditions: Compound concentration 10.0 uM
[19] = species: Rattus norvegicus; experiment: Inhibition of Rolipram at 10 µM in the Eurofins-Panlabs radioligand binding assay (Eurofins_assay_268811); format: protein assay; set-up: ligand concentration 1.8 nM; conditions: Compound concentration 10.0 uM
[20] = biological target: Voltage-dependent N-type calcium channel subunit alpha-1B (Homo sapiens) (UniProt Q00975); experiment: Inhibition of Calcium Channel N-Type at 10 µM in the Eurofins-Panlabs radioligand binding assay (Eurofins_assay_216000); conditions: Rattus norvegicus; Compound concentration 10.0 uM
[21] = biological target: Protein kinase C alpha type (Homo sapiens) (UniProt P17252); experiment: Inhibition of Protein Serine/Threonine Kinase, PRKCA (PKCα) at 10 µM in the Eurofins-Panlabs enzyme assay (Eurofins_assay_180010); set-up: substrate with concentration Histone, incubation time 10 min, incubation temperature 25 °C; conditions: Compound concentration 10.0 uM
[22] = biological target: Mitogen-activated protein kinase 1 (Homo sapiens) (UniProt P28482); experiment: Inhibition of Protein Serine/Threonine Kinase, MAPK1 (ERK2) at 10 µM in the Eurofins-Panlabs enzyme assay (Eurofins_assay_171120); set-up: substrate with concentration; conditions: Compound concentration 10.0 uM
Mitogen-activated protein kinase 1 (Homo sapiens), sequence (P28482 whole entry): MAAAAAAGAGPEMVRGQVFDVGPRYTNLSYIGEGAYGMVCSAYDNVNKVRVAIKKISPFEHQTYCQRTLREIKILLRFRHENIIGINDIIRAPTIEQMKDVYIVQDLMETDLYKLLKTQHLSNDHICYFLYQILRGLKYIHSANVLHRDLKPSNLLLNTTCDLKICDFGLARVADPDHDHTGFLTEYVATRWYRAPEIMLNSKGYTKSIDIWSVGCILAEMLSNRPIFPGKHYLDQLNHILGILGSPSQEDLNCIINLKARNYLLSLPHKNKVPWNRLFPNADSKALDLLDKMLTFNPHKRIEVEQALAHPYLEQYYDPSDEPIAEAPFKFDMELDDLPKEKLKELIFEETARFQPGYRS

[23] = biological target: Neuropeptide Y receptor type 2 (Homo sapiens) (UniProt P49146); experiment: Inhibition of Neuropeptide Y Y2 at 10 µM in the Eurofins-Panlabs radioligand binding assay (Eurofins_assay_257110); conditions: Compound concentration 10.0 uM
Neuropeptide Y receptor type 2 (Homo sapiens), sequence (P49146 whole entry): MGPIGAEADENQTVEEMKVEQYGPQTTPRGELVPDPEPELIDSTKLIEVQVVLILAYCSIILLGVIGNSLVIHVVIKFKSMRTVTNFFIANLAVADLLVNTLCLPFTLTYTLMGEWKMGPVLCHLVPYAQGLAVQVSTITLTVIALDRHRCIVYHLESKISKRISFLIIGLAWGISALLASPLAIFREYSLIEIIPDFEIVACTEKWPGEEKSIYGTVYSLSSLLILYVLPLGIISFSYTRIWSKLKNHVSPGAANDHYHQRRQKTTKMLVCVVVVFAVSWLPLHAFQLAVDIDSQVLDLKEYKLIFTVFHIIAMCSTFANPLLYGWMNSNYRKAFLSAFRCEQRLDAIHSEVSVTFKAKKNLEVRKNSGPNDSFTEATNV

[24] = biological target: Beta-2 adrenergic receptor (Homo sapiens) (UniProt P07550); conditions: Compound concentration 10.0 uM
Beta-2 adrenergic receptor (Homo sapiens), sequence (P07550 whole entry, looked up): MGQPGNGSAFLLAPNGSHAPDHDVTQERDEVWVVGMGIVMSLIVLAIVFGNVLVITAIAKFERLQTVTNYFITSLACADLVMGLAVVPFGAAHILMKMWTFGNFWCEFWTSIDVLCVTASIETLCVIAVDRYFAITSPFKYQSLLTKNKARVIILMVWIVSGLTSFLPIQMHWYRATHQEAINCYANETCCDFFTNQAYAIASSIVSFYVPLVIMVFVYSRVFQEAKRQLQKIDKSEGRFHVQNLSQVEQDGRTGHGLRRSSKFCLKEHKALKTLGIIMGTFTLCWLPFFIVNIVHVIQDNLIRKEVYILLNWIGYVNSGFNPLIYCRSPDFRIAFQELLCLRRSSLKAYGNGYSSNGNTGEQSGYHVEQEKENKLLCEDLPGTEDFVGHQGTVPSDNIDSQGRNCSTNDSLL

[25] = biological target: Substance-K receptor (Homo sapiens) (UniProt P21452); experiment: Inhibition of Tachykinin NK2 at 10 µM in the Eurofins-Panlabs radioligand binding assay (Eurofins_assay_255600); set-up: ligand concentration 0.5 nM; conditions: Compound concentration 10.0 uM
Substance-K receptor (Homo sapiens), sequence (P21452 whole entry): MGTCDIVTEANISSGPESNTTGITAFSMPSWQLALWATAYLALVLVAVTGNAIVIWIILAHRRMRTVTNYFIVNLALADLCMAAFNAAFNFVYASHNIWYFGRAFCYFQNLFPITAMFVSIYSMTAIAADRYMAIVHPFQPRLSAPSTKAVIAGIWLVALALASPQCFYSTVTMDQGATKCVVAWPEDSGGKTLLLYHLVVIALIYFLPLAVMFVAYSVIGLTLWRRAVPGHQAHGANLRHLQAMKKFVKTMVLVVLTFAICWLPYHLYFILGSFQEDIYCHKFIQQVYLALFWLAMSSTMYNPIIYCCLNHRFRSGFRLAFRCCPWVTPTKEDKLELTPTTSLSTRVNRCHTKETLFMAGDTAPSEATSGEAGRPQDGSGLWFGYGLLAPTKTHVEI

[26] = species: Rattus norvegicus; experiment: Inhibition of Imidazoline I2, Central at 10 µM in the Eurofins-Panlabs radioligand binding assay (Eurofins_assay_241000); set-up: ligand concentration 2 nM; conditions: Compound concentration 10.0 uM
[27] = biological target: B1 bradykinin receptor (Homo sapiens) (UniProt P46663); experiment: Inhibition of Bradykinin B1 at 10 µM in the Eurofins-Panlabs radioligand binding assay (Eurofins_assay_212510); conditions: Compound concentration 10.0 uM
[28] = biological target: Tyrosine-protein kinase SYK (Homo sapiens) (UniProt P43405); experiment: Inhibition of Syk(h) at 10.0 µM in the Eurofins Kinase panel; conditions: Compound concentration 10.0 uM
[29] = biological target: Angiopoietin-1 receptor (Homo sapiens) (UniProt Q02763); experiment: Inhibition of Tie2(h) at 10.0 µM in the Eurofins Kinase panel; conditions: Compound concentration 10.0 uM
[30] = biological target: Melanocortin receptor 4 (Homo sapiens) (UniProt P32245); experiment: Inhibition of Melanocortin MC4 at 10 µM in the Eurofins-Panlabs radioligand binding assay (Eurofins_assay_251350); set-up: ligand concentration 0.02 nM; conditions: Compound concentration 10.0 uM
[31] = biological target: Melanocortin receptor 3 (Homo sapiens) (UniProt P41968); experiment: Inhibition of Melanocortin MC3 at 10 µM in the Eurofins-Panlabs radioligand binding assay (Eurofins_assay_251300); set-up: ligand concentration 0.035 nM; conditions: Compound concentration 10.0 uM

O=c1n(Cc2cncn2-c2cccc(Cl)c2)nc(-c2ccc(Cl)cc2)n1C[C@H](O)C(F)(F)F
inhibition [1]: 19%
inhibition [2]: 10.1%
inhibition [3]: -9.78%
inhibition [4]: 25%
inhibition [5]: 8%
inhibition [6]: 14%
inhibition [7]: -9.85%
inhibition [8]: 25%
inhibition [9]: -7.91%

C[C@H](O)c1nc(Cn2nc(-c3ccc(Cl)cc3)n(C[C@H](O)C(F)(F)F)c2=O)nn1-c1cccc(Cl)c1 [PECAVAPTAN]
inhibition [10]: 2.46%
inhibition [11]: 18%
inhibition [12]: 0%
inhibition [13]: 32%
inhibition [14]: 1%
inhibition [15]: 17%
inhibition [16]: -7%
inhibition [17]: -4.81%
inhibition [18]: -1%
inhibition [19]: -2%
inhibition [20]: -2%
inhibition [21]: -2%
inhibition [22]: -2%
inhibition [23]: 6%
inhibition [24]: -4.34%
inhibition [25]: 30%
inhibition [26]: 21%
inhibition [27]: 0%
inhibition [28]: -8.56%
inhibition [29]: -8.17%
inhibition [30]: 4%
inhibition [31]: 6%
